# Tested on: primary osteoblastic cells of foetal rat calvariae
# Assay: DNA synthesis assay in primary cultures of osteoblasts from fetal rat calvariae (3H-thymidine incorporation)
# Type: cell-based
# Conditions: 1 μg/ml; 24 hours incubation, methyl-3H-thymidine during the last 3 hours; medium containing BSA control = 100%
# Method: Compounds of formula (I) were examined in a DNA synthesis assay in primary cultures of osteoblasts from fetal rat calvariae. The experiments were carried out in accordance with Pfeilschifter et al., Endocrinology 126, 703 (1990).
# Primary osteoblasts were isolated from foetal rat calvariae by sequential digestion with collagenase. In this process 5 cell fractions were obtained. A pool from the cell fractions 3-5 were cultured in vitro. The cells were cultured in an incubator at a relative air humidity of 95%, a CO2 content of 5% and a temperature of 37° C. The test substances were examined in the cultures of the first, second or third cell passage. For the examinations the cells were sown at a cell count of 7×10^3 cells (in 100 μl culture medium)/well in microtitre plates at least 76 hours before applying the test substances. MEM Dulbecco (plus 4.5 g/l glucose plus 3.7 g/l NaHCO3 without glutamine) was used as the culture medium to which 5% foetal calf serum (FCS) and […] penicillin/streptomycin had been added. Immediately before addition of the test substances to the cell culture the medium was replaced by 150 μl medium which contained 1 mg/ml bovine serum albumin (BSA) instead of FCS. Test substances were added at the desired concentrations to the medium containing BSA. TGFβ1 (transforming growth factor β1) at concentrations of 0.1-0.2 ng/ml were also examined as a positive control. Three determinations were carried out per (positive) control or substance concentration. The cell cultures were incubated for 24 hours with test substances, a thymidine probe (1 μCi methyl-^3H-thymidine in 20 μl PBS solution) being additionally present during the last 3 hours. At the end of the incubation period the cell cultures were washed three times with 0.9% saline solution and subsequently admixed with 100 μl liquid scintillator each time (OptiPhase Supermix TM®). Afterwards the radioactivity incorporated into the DNA was measured in cpm in a liquid scintillation counter (1450 MicroBeta®). Cell cultures which had only received medium containing BSA served as controls (100%).
row,SMILES,Rate of DNA synthesis of primary osteoblastic cells of foetal rat calvariae in percent compared to the control (=100%) [%]
1,CC/C=C\C/C=C\C/C=C\CCCCCCCC(=O)N[C@@H](CO)CCCC (stereo in doubt) [Example 9],367
2,CCCCC/C=C\C/C=C\CCCCCCCC(=O)N[C@@H](CO)CCCC (stereo in doubt) [Example 10],475
3,CCCCC/C=C\C/C=C\CCCCCCCC(=O)N[C@H](CC)CO (stereo in doubt) [Example 27],252
4,CCCCCC/C=C\CCCCCCCC(=O)NC(CO)CCCC (stereo not drawn) [Example 11],191
5,CCCC/C=C\CCCCCCCC(=O)NC(CO)CCCC (stereo not drawn) [Example 19],298
6,CCCCCCCCC#CCCCCCCCC(=O)NC(CO)CCCC (stereo not drawn) [Example 20],250
7,CCCCCCCC/C=C/CCCCCCCC(=O)NC(CO)CCCC (stereo not drawn) [Example 21],188
8,CCCCC/C=C\C/C=C\CCCCCCCC(=O)NC(CO)CCCC (stereo not drawn) [Example 24],223
9,CCCCCCCC/C=C\CCCCCCCC(=O)NC(CO)CCCC (stereo not drawn) [Example 26],296
